Source: patent US9539275B2, “Melanogenesis effect of saponins of gynostemma pentaphyllum” (Hong Kong Baptist University, priority 2014, dated 2017)

Assays:
Type in all cases: cell-based, Mouse
B16 cells [1] = test: Colour of culture medium (extracellular melanin) and cell pellets, B16 cells
Procedure: (§1) The PKA signaling pathway is known to take part in regulating melanogenic events. […] To further investigate the involvement of the PKA pathway in the induction of the melanogenic effect of GpS in B16 and B6F10 cells, a PKA inhibitor, H89, is employed. […] Cells are treated with GpS in the presence or absence of H89 inhibitor. […] H89 treatment effectively lightens the color of the culture medium as well as the cell pellets.

B16F10 cells [2] = test: MTT cell viability assay in B16F10 cells; settings: H89 up to 5 μM, 48 hours
Procedure: (§2) Cell viabilities were determined using the MTT assay. Briefly, cells were seeded in 96-well plates (1×10^3 cells/well) and allowed to adhere at 37° C. for 24 hours. Various concentrations of drugs were then added. After 48 hours incubation, 20 μl of MTT solution (2.5 mg/ml in PBS) was added to each well and cells were incubated at 37° C. for 4 hours. Following medium removal, 100 μl of DMSO were added to each well and the plates were gently shaken for 5 minutes. Optical absorbance was determined at 570 nm with a microplate spectrophotometer (BD Bioscience, USA). Absorbance of cells without treatment was regarded as 100% of cell survival. Each treatment was performed in triplicate and each experiment was repeated three times.

CREB [3] = test: Western blotting of p-CREB and CREB in B16 cells; settings: 5 μM H89 in GpS-treated cells
Procedure: (§3) Cells were collected and total protein lysates were extracted with RIPA lysis buffer [50 mM Tris-Cl, 1% v/v NP-40, 0.35% w/v sodium-deoxycholate, 150 mM NaCl, 1 mM EDTA, 1 mM EGTA, 1 mM phenylmethylsulfonyl fluoride (PMSF), 1 mM NaF, 1 mM Na3VO4, pH adjusted to 7.4] containing a protease inhibitor cocktail (Roche, Germany) for 30 minutes on ice. After centrifugation at 20,800×g for 15 minutes at 4° C., the supernatant was collected and regarded as total cell lysates.
(§4) Protein concentration was determined by DC Protein Assay (Bio Rad, USA). A standard curve was created by bovine serum albumin (BSA) concentration 0, 0.375, 0.75 and 1.5 μg/μl for the determination of the absolute protein concentration. Then, the mixture of reagent A and reagent S (50:1) was mixed with 5 μl of protein lysate. Then 200 μl of reagent B were added and mixed with 10 minutes incubation at room temperature. Finally, the absorbance was determined at 700 nm with a microplate spectrophotometer (BD Bioscience, USA). […]
(§5) Membranes were blocked for 30 minutes with 3% Bovine Serum Albumin in TBST buffer composed of 50 mM Tris (pH 7.6), 150 mM NaCl and 0.1% Tween-20 and incubated with the primary antibody overnight at 4° C. GADPH was used as loading control and was detected using an anti-GADPH polyclonal antibody (Santa cruz Biotechnology). […]

B16F10 cells [4] = test: Colour of culture medium (extracellular melanin) and cell pellets, B16F10 cells
Procedure: as §1

B16F10 cells [5] = test: Measurement of cellular melanin contents in B16F10 cells; settings: 5 μM H89 with GpS 50-100 μg/ml, 48 hours
Procedure: (§6) Cells were seeded in a 60 mm dish (2×10^5 cells/dish) and allowed to adhere at 37° C. for 24 hours. After adding test samples, cells were incubated for 48 hours and then washed with PBS and lysed in 120 μl of 1 M NaOH followed by 10 minutes of heating at 100° C. to solubilize the melanin. Each lysate (100 μl) was added into a well of a 96-well microplate, and the absorbance was determined at 475 nm with a microplate spectrophotometer (BD Bioscience, USA). The protein concentration of each sample was determined by DC Protein Assay (BIO-RAD, USA). Each experiment was repeated three times. The intracellular melanin amount/protein amount was shown as percentage values. Each percentage value of the drug-treated cells was calculated with respect to that of control cells.

tyrosinase [6] = test: Tyrosinase activity assay in B16F10 cells; settings: 5 μM H89 with GpS 50-100 μg/ml, 48 hours
Procedure: (§7) Cells were seeded in 96-well plates (3×10^3 cells/well) and allowed to adhere at 37° C. for 24 hours. Test samples were then added to individual wells. After 48 hours incubation, cells were washed with ice-cold PBS and 100 μl of 0.1% Triton X-100 lysis buffer were added into each well and lysed at −80° C. for 30 minutes. After freezing and thawing, 100 μl of freshly prepared substrate solution (0.1% L-DOPA) were added into a well on a 96-well plate. Following 2 hours incubation, the absorbance was determined at 475 nm with a microplate spectrophotometer (BD Bioscience, USA). Each percentage value of the drug-treated cells was calculated with respect to that of control cells. Each treatment was repeated three times.

B16 cells [7] = test: MTT cell viability assay in B16 cells; settings: H89 up to 5 μM, 48 hours
Procedure: as §2

CREB [8] = test: Western blotting of p-CREB and CREB in B16F10 cells; settings: 5 μM H89 in GpS-treated cells
Procedure: as §3, §4, §5

tyrosinase [9] = test: Tyrosinase activity assay in B16 cells; settings: 5 μM H89 with GpS 50-150 μg/ml, 48 hours
Procedure: as §7

B16 cells [10] = test: Measurement of cellular melanin contents in B16 cells; settings: 5 μM H89 with GpS 50-150 μg/ml, 48 hours
Procedure: as §6

[11] = co-treated with 5 μM H89 and GpS, compared with GpS-treated cells

Question: For `O=S(=O)(NCCNC/C=C/c1ccc(Br)cc1)c1cccc2cnccc12` [H89], which “colour of cell pellets” value (B16 cells [1]; [11]) is on record?
Answer: lighter in color

Question: What about the “secretion of melanin induced by GpS” value (B16 cells [1]; co-treatment with H89) of the same compound?
Answer: attenuated

Question: What about the “cytotoxicity (MTT)” value (B16F10 cells [2]) of the same compound?
Answer: no cytotoxicity

Question: And the “GpS-induced p-CREB expression” value (CREB [3])?
Answer: significantly attenuates

Question: What about the “total CREB expression” value (CREB [3]) of the same compound?
Answer: without significant influence

Question: What about the “colour of cell pellets” value (B16F10 cells [4]; [11]) of the same compound?
Answer: lighter in color

Question: And the “secretion of melanin induced by GpS” value (B16F10 cells [4]; co-treatment with H89)?
Answer: attenuated

Question: And the “GpS-induced increment of melanin content” value (B16F10 cells [5])?
Answer: significantly attenuated

Question: And the “GpS-induced increment of cellular tyrosinase activity” value (tyrosinase [6])?
Answer: significantly attenuated

Question: And the “cytotoxicity (MTT)” value (B16 cells [7])?
Answer: no cytotoxicity

Question: And the “GpS-induced p-CREB expression” value (CREB [8])?
Answer: significantly attenuates

Question: And the “total CREB expression” value (CREB [8])?
Answer: without significant influence

Question: What about the “GpS-induced increment of cellular tyrosinase activity” value (tyrosinase [9]) of the same compound?
Answer: significantly attenuated

Question: What about the “GpS-induced increment of melanin content” value (B16 cells [10]) of the same compound?
Answer: significantly attenuated
